Reference: patent US20120130699A1, “Method of molecular design and synthesis of therapeutic and preventive drugs” (priority 2010, published 2012)

Key:
[1] = comparative characteristics: ED50 and therapeutic index; settings: LD50 in rats / ED50
[2] = rat, in vivo
[3] = human, in vivo; cited from earlier work
[4] = test system: cervical cancer; settings: treatment of cervical cancer; cited from earlier work

Compound: CC(=O)O[C@@]12CO[C@@H]1C[C@H](O)[C@@]1(C)C(=O)[C@H](O)C3=C(C)[C@@H](OC(=O)[C@H](O)[C@@H](NC(=O)OC(C)(C)C)c4ccccc4)C[C@@](O)([C@@H](OC(=O)c4ccccc4)[C@H]21)C3(C)C [Taxotere]
- Therapeutic Index [1]: 3.42
- Relative Therapeutic Index [2]: 1

Compound: CN1CC[C@]23c4c5ccc(O)c4O[C@H]2[C@@H](O)C=C[C@H]3[C@H]1C5 [morphine]
- average effectiveness [3]: 75%

Compound: alpha-interferon
- average effectiveness [4]: about 15%
